Measured values reported in patent US4022834A, “Antibacterially active hexamethylene-bis-biguanides” (priority 1972, dated 1977).
Counter-ions that a name gives are not always drawn. Like-named read-outs stand apart in the source and are kept apart here.

How the values were obtained:
bacteria = conditions: cited from earlier work
plaque [1] = test: Plaque-index on test persons after mouth rinsing; format: in vivo; conditions: rinsing with 1,6 mM chlorohexidine under the same conditions; scale 0 to 3
plaque [2] = conditions: rinsing of the mouth; cited from earlier work
Staph. aureus = test: Inhibition of growth in aqueous solution and subcultivation in liquid medium, Staph. aureus; format: cell-based; conditions: Reference: Chlorohexidine=1
Source text: (§1) Inhibition of growth in aqueous solution and subcultivation in liquid medium. Reference: Chlorohexidine=1.

plaque [3] = test: Plaque-index on test persons after mouth rinsing; format: in vivo; conditions: rinsing with 10 ml of 1,1 mM solution 3 times daily for 3 days; scale 0 (no plaque) to 3 (clearly visible plaque marginally)
Protocol: Plaque-index on test persons after rinsing with 10 ml of 1,1 mM solution 3 times daily for 3 days. The rinsing was during this time the only type of oral hygiene used.
Plaque-index, which is a recognized measure of plaque-inhibiting property, runs from 0 (no plaque) to 3 (clearly visible plaque marginally).

human epithelial cells = test: Cytotoxic effect on human epithelial cells in vitro; format: cell-based
Protocol: Cytotoxic effect on human epithelial cells in vitro after treatment for 5 minutes at 37° C. Reference: Chlorohexidine=1.

Aerobacter aerogenes = test: Inhibition of growth in aqueous solution and subcultivation in liquid medium, Aerobacter aerogenes; format: cell-based; conditions: Reference: Chlorohexidine=1
Source text: as §1

[4] = Acute peroral toxicity in mice; conditions: mouse, in vivo, po
[5] = treatment for 5 minutes at 37° C., Reference: Chlorohexidine=1

SMILES	Antibacterial activity (in words) (bacteria)	Plaque index (plaque [1])	Effect against gingivitis and caries (in words) (plaque [2])	Inhibition of plaque formation (in words) (plaque [2])	Inhibition of growth relative to chlorohexidine (Staph. aureus)	Plaque index (plaque [3])	Toxicity compared with chlorohexidine (in words) (human epithelial cells; human epithelial cells in vitro)	Cytotoxic effect relative to chlorohexidine (human epithelial cells; [5])	Inhibition of growth relative to chlorohexidine (Aerobacter aerogenes)	LD50 [4] [mg/kg]	Cytotoxic effect relative to chlorohexidine (human epithelial cells)
N=C(NCCCCCCNC(=N)NC(=N)Nc1ccc(Cl)cc1)NC(=N)Nc1ccc(Cl)cc1 [chlorohexidine, 1,1'-hexamethylene-bis-[5-(4-chlorophenyl)biguanide]]	antibacterial effect	0,75	prophylactic effect against gingivitis and caries	marked inhibiting effect on the formation of plaque	–	–	–	–	–	–	–
CCCCC(CC)CNC(=N)NC(=N)NCCCCCCNC(=N)NC(=N)NCC(CC)CCCC (stereo not shown) [Compound 9, 1,1'-hexamethylene-bis-[5-(2-ethylhexyl)biguanide], reference compound]	known for having antibacterial activity	–	–	–	8	0,52	much more toxic	4	2	–	–
CCCCCC(C)NC(=N)NC(=N)NCCCCCCNC(=N)NC(=N)NC(C)CCCCC.Cl.Cl (stereo not shown) [Compound 6, 1,1'-hexamethylene-bis-[5-(1-methylhexyl)biguanide]-dihydrochloride]	–	–	–	–	4	0,27	–	1	1	–	–
N=C(NCCCCCCNC(=N)NC(=N)NC1CC2CCC1C2)NC(=N)NC1CC2CCC1C2 (stereo not shown) [Compound 5, 1,1'-hexamethylene-bis-[5-(2-endonorbornyl]biguanide)-dihydrochloride]	–	–	–	–	1/2	0,50	–	1/8	1/8	–	–
N=C(NCCCCCCNC(=N)NC(=N)NC12CC3CC(CC(C3)C1)C2)NC(=N)NC12CC3CC(CC(C3)C1)C2 [Compound 4, 1,1'-hexamethylene-bis-[5-(1-adamantyl)biguanide]dihydrochloride]	–	–	–	–	16	0,36	–	–	8	2830	–
CC(C)CCC(C)NC(=N)NC(=N)NCCCCCCNC(=N)NC(=N)NC(C)CCC(C)C.Cl.Cl (stereo not shown) [Compound 8, 1,1'-hexamethylene-bis-[5-(1,4-dimethylpentyl)biguanide]-dihydrochloride]	–	–	–	–	8	0,70	–	1	1	–	–
[H]/N=C(\N/C(=N/[H])NCCCCCCNC(=N)NC(=N)Nc1ccc(Cl)cc1)Nc1ccc(Cl)cc1 [Chlorohexidine-digluconate, reference compound]	–	–	–	–	–	–	–	–	–	1800	–
N=C(NCCCCCCNC(=N)NC(=N)NCC1CCCCC1)NC(=N)NCC1CCCCC1 [Compound 3]	–	–	–	–	2	0,19	–	1/2	8	–	–
CCC(C)CC(C)NC(=N)NC(=N)NCCCCCCNC(=N)NC(=N)NC(C)CC(C)CC (stereo not shown) [Compound 7, 1,1'-hexamethylene-bis-[5-(1,3-dimethylpenthyl)-biguanide]-dihydrochloride]	–	–	–	–	8	0,29	–	1	1	–	–
N=C(NCCCCCCNC(=N)NC(=N)N1CC2CCC(CC2)C1)NC(=N)N1CC2CCC(CC2)C1 [Compound 2]	–	–	–	–	1	0,58	–	–	1	–	1/8
CC(C)CCCC(C)NC(=N)NC(=N)NCCCCCCNC(=N)NC(=N)NC(C)CCCC(C)C (stereo not shown) [Compound 1, 1,1'-hexamethylene-bis-[5-(1,5-dimethylhexyl)biguanide]dihydrochloride]	–	–	–	–	4	0,36	–	–	16	1690	–
